According to ChEMBL document CHEMBL3867442, “Naphthalene Derivatives from the Roots of Pentas parvifolia and Pentas bussei” (2016):

Assay: Cytotoxicity against human MDA-MB-231 cells after 72 hrs by alamar blue assay
Type: functional
Conditions: MDA-MB-231, 72 h, read-out: LD50 (the source's name)

| Structure (SMILES) | CC50 |
| --- | --- |
| COc1c(C)c(O)cc2c1C(=O)c1ccccc1C2=O | 54.4 µM |
| COc1cc(C(=O)O)c(O)c2ccc3c(c12)[C@@H]1O[C@@H](OC)[C@H](C)[C@@H]2CC[C@](C)(O3)[C@@H]21 | 130 µM |
| COC(=O)c1cc(OC)c2c(O)c(O)ccc2c1O | 96.5 µM |
| CCO[C@@H]1O[C@H]2c3c(ccc4c(O)c(C(=O)O)cc(OC)c34)O[C@@]3(C)CC[C@@H]([C@H]1C)[C@@H]23 | 62.3 µM |
| COc1cc(C(=O)O)c(O)c2ccc3c(c12)C=CC(C)(CCC=C(C)C)O3 (stereo unspecified) [BUSSEIHYDROQUINONE C] | 48.4 µM |
| COc1c(C=O)c(O)cc2c1C(=O)c1ccccc1C2=O [DAMNACANTHAL] | > 352 µM |
